Measurements: the NIST ThermoML archive (doi:10.1021/je400134d)

Assay: xn = mol fraction of the nth substance listed
Settings: 100 kPa, Liquid; for speed of sound: Pulse-echo method; for mass density: Vibrating tube method

CNc1ccccc1 [N-methylaniline] + CCCCCCC
Settings	mass density [kg/m3]	speed of sound [m/s]
293.15 K, x1 = 0.054	695.999	1164.1
293.15 K, x1 = 0.1084	708.778	1177.2
293.15 K, x1 = 0.1536	719.814	1188.4
293.15 K, x1 = 0.2	731.341	1200
293.15 K, x1 = 0.2556	745.704	1214.5
293.15 K, x1 = 0.2976	756.81	1226.1
293.15 K, x1 = 0.3473	770.261	1240.6
293.15 K, x1 = 0.3944	783.41	1255.2
293.15 K, x1 = 0.4485	798.879	1273.5
293.15 K, x1 = 0.4953	812.615	1291
293.15 K, x1 = 0.5355	824.725	1306.9
293.15 K, x1 = 0.599	844.458	1335
293.15 K, x1 = 0.6436	858.711	1356.6
293.15 K, x1 = 0.7024	878.07	1387.7
293.15 K, x1 = 0.7457	892.769	1412.5
293.15 K, x1 = 0.7858	906.675	1436.7
293.15 K, x1 = 0.8459	928.153	1474.7
293.15 K, x1 = 0.8952	946.22	1507.9
293.15 K, x1 = 0.9491	966.608	1545.5
298.15 K, x1 = 0.0577	692.58	1143.9
298.15 K, x1 = 0.1072	704.27	1156.2
298.15 K, x1 = 0.1473	713.999	1166.3
298.15 K, x1 = 0.2055	728.558	1181.4
298.15 K, x1 = 0.2595	742.491	1193.9
298.15 K, x1 = 0.3033	754.107	1208.3
298.15 K, x1 = 0.3401	764.024	1219.2
298.15 K, x1 = 0.3955	779.471	1236.7
298.15 K, x1 = 0.4559	796.765	1257.6
298.15 K, x1 = 0.503	810.692	1275.5
298.15 K, x1 = 0.5431	822.843	1291.9
298.15 K, x1 = 0.5956	839.178	1315.3
298.15 K, x1 = 0.6441	854.671	1338.8
298.15 K, x1 = 0.6995	872.931	1368.1
298.15 K, x1 = 0.7491	889.715	1396.2
298.15 K, x1 = 0.7964	906.279	1425.1
298.15 K, x1 = 0.8446	923.55	1455.9
298.15 K, x1 = 0.8949	942.036	1489.6
298.15 K, x1 = 0.9465	961.528	1525.6
303.15 K, x1 = 0.0615	689.386	1124.9
303.15 K, x1 = 0.1111	701.082	1137.5
303.15 K, x1 = 0.1548	711.723	1148.8
303.15 K, x1 = 0.2069	724.76	1162.6
303.15 K, x1 = 0.2501	735.88	1174.4
303.15 K, x1 = 0.2964	748.035	1187.5
303.15 K, x1 = 0.348	762.057	1203.2
303.15 K, x1 = 0.3979	775.964	1219.2
303.15 K, x1 = 0.4513	791.356	1238
303.15 K, x1 = 0.5003	805.793	1256.5
303.15 K, x1 = 0.5583	823.48	1280.8
303.15 K, x1 = 0.5988	836.196	1299.2
303.15 K, x1 = 0.647	851.618	1322.6
303.15 K, x1 = 0.7026	869.963	1351.9
303.15 K, x1 = 0.7475	885.221	1377.4
303.15 K, x1 = 0.7954	901.919	1406.3
303.15 K, x1 = 0.8446	919.525	1437.5
303.15 K, x1 = 0.8917	936.846	1468.8
303.15 K, x1 = 0.9404	955.244	1502.4
